Measured values: US20250257034A1, “INDOLE DERIVATIVES AS SEROTONERGIC AGENTS USEFUL FOR THE TREATMENT OF DISORDERS RELATED THERETO” (priority 2023, published 2025)
pEC50: −log10 of the molar value. Like-named read-outs stand apart in the source and are kept apart here.

Experiments:
Format in all cases: cell-based
[1] = molecular target: human 5-HT2A receptor (Homo sapiens, UniProt P28223); experiment: h-5HT2A β-arrestin reporter assay in U2OS cells; set-up: expressed in transfected cells
Procedure: (§1) Compound potency (EC50) and efficacy (Max response) against the human 5-HT2A receptor in stably transfected U2OS cells was determined in a G protein-coupled receptors (GPCR) cell based p-arrestin reporter assay. Cells were seeded in a total volume of 20 μL into white walled, 384-well microplates and incubated at 37° C. overnight before analysis. For agonist determination, cells were incubated with sample to induce response. Intermediate dilution of sample stocks was performed to generate 5×sample in assay buffer. 5 μL of 5×sample was added to cells and incubated at 37° C. for 120 minutes. Final assay vehicle concentration was 1%.
as §1, with “5-HT2Areceptor” for “5-HT2A receptor”, “GPCR” for “G protein-coupled receptors (GPCR)”, “P-arrestin” for “p-arrestin”

[2] = molecular target: T1, human 5-HT1A receptor (Homo sapiens, UniProt P08908); experiment: Human 5HT1A cAMP assay in CHO-K1 cells; set-up: expressed in transfected cells
T1 sequence (P08908 1-422): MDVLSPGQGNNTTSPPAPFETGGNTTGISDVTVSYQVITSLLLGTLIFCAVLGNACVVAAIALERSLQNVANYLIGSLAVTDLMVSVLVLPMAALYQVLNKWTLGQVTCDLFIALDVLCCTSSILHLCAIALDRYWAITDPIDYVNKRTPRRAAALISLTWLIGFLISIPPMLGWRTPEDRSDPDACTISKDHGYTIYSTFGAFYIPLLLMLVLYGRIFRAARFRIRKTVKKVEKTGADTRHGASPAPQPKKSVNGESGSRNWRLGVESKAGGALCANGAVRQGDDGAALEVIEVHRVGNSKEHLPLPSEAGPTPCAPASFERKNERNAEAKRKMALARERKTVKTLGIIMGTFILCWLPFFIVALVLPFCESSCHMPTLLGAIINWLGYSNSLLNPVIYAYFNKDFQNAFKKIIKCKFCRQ
Procedure: Compound potency (EC50) and efficacy (Max response) against the human 5-HT1A receptor in stably transfected CHO-K1 cells was determined in a GPCR cell-based cAMP assay.
(§2) Cells were seeded in a total volume of 20 μL into white walled, 384-well microplates and incubated at 37° C. overnight before analysis. Prior to testing, cell plating media was exchanged with 10 μL of Assay buffer (HBSS+10 mM HE P E S). Briefly, intermediate dilution of sample stocks was performed to generate 4×sample in assay buffer. 5 μL of 4×sample+5 μL of 4×forskolin was added to cells and incubated at 37° C. for 30 minutes. Final assay vehicle concentration was 1%. The results are expressed as a percent efficacy relative to the maximum response of the control ligand (serotonin) in Table 27.
as §2, with “HEPES).” for “HE P E S).”, “4×sample +5” for “4×sample+5”, “56.” for “27.”

[3] = molecular target: 5-HT2B receptor (Homo sapiens, UniProt P41595); experiment: h-5HT2B positive allosteric modulator (PAM) assay in HEK293 cells; set-up: expressed in transfected cells; host or cells: HEK293, stably transfected; conditions: for Emax (% of serotonin): PAM mode
5-HT2B receptor, sequence (P41595 whole entry): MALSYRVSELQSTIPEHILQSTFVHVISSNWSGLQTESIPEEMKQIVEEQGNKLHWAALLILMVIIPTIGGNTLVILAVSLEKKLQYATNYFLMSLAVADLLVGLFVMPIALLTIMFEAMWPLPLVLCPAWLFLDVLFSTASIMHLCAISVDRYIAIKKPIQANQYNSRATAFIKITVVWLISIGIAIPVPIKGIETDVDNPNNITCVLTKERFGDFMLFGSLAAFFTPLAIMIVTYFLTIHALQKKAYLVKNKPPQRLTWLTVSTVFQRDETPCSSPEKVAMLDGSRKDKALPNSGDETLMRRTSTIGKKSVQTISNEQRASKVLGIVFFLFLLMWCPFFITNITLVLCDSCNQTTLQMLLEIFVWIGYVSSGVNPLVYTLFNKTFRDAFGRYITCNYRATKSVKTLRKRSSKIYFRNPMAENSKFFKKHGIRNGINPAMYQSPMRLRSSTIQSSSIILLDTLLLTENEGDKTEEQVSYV
Procedure: Compound potency (EC50) and efficacy (Max response) against the human 5-HT2B receptor in stably transfected HEK293 cells was determined in a GPC R cell-based assay.
(§3) For Positive Allosteric Modulator determination, cells were pre-incubated with sample followed by EC20 addition. Intermediate dilution of sample stocks was performed to generate 5×sample in assay buffer. 5 μL of 5×sample was added to cells and incubated at 37° C. for 10 minutes. 5 μL of agonist at 6×EC20 concentration was added and cells were incubated at 37° C. for 120 minutes. Final assay vehicle concentration was 1%. The results are expressed as a percent efficacy relative to the maximum response of the control ligand (serotonin) in Table 29.
as §3, with “58.” for “29.”

[4] = β-arrestin reporter, U2OS cells
[5] = relative to maximum response of serotonin (Table 56)
[6] = relative to maximum response of control ligand serotonin
[7] = relative to maximum response of serotonin (Table 27)
[8] = relative to maximum response of serotonin (Table 29)

human 5-HT2A receptor, sequence (P28223 whole entry): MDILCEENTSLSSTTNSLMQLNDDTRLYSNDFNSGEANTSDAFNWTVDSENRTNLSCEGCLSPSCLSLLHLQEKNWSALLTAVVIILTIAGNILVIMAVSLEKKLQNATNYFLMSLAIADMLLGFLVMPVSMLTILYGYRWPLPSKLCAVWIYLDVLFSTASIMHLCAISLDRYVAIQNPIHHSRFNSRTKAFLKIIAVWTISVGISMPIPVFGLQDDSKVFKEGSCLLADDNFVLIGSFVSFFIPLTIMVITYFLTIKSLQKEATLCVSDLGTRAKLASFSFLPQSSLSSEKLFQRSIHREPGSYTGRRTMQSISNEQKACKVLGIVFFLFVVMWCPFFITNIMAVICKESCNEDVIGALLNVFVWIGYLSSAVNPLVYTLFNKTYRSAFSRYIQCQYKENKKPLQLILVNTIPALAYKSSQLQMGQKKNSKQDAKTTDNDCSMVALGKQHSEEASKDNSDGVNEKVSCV

Compound | pEC50 [1] | Emax (% of serotonin) [1, 4] | pEC50 [2] | Emax (% of serotonin) [2, 5] | pEC50 [3] | Emax (% of serotonin) ([3]; HEK293 cells, relative to max response of serotonin) | Emax (% of serotonin) [1, 6] | Emax (% of serotonin) [2, 7] | Emax (% of serotonin) [3, 8] | pEC50 ([1]; β-arrestin reporter, U2OS cells, 120 min, read-out: EC50) | pEC50 ([1]; β-arrestin reporter, U2OS cells, read-out: EC50)
COc1ccc2[nH]cc(CCN3CC[C@H](OC(F)F)C3)c2c1 [(S) I-67, (S)-3-(2-(3-(Difluoromethoxy)pyrrolidin-1-yl)ethyl)-5-methoxy-1H-indole] | 5.68 | 38.02 % of serotonin | 7.94 | 98.47 % of serotonin | < 5.00 | 0 % of serotonin |  |  |  |  | 
[2H]C([2H])([2H])N(CCc1c[nH]c2ccc(SC)cc12)C([2H])([2H])[2H] [Compound I-1, N,N-Bis(methyl-d3)-2-(5-(methylthio)-1H-indol-3-yl)ethan-1-amine] | 7.23 |  | 7.95 |  | < 5.00 |  | 74 % of serotonin | 96.18 % of serotonin | 0 % of serotonin |  | 
CCN(C)CCc1c[nH]c2ccc(SC)cc12 [Compound I-13, N-Ethyl-N-methyl-2-(5-(methylthio)-1H-indol-3-yl)ethan-1-amine] | 7.23 |  | 8.04 |  | < 5.00 |  | 75.27 % of serotonin | 100.52 % of serotonin | 0 % of serotonin |  | 
CN(C)CCc1c[nH]c2ccccc12 [DMT] |  | 38.86 % of serotonin |  | 87.1 % of serotonin |  |  | 38.86 % of serotonin | 87.1 % of serotonin |  | 6.94 | 6.94
